Laboratory results taken from PubChem BioAssay AID330 (DTP/NCI, 2004).
“And” between values parts separate entries of the source, which are not always exact repeats. Identical values can stand only once. Inconclusive results and toxic doses are left out. Rule for the calls: active = survival T/C of 150% or more; inactive = T/C below 125% in these data. Peptide text beside a SMILES is read from it. * marks the point of attachment. Boc = CC(C)(C)OC(=O)*

System: P388 leukemia ip, CD2F1 mice, survival T/C
Assay: NCI In Vivo Anticancer Drug Screen. Data for tumor model P388 Leukemia (intraperitoneal) in CD2F1 (CDF1) mice
Conditions: endpoint: median survival time, higher = longer survival
Summary of the method: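 Mice carrying the transplanted tumor received test compound or vehicle. Survival was recorded in each group, and the value is the treated-group measurement divided by that of the vehicle-treated control group.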

[1] = dose: 6.25 mg/kg/injection, schedule: Q01DX009 (ip), vehicle: saline with Tween-80
[2] = dose: 25.0 mg/kg/injection, schedule: Q01DX009 (ip), vehicle: saline with Tween-80
[3] = dose: 50.0 mg/kg/injection, schedule: Q01DX009 (ip), vehicle: saline with Tween-80
[4] = dose: 50.0 mg/kg/injection, schedule: Q01DX005 (ip), vehicle: Klucel (hydroxypropylcellulose) (HPC)
[5] = dose: 100.0 mg/kg/injection, schedule: Q01DX005 (ip), vehicle: Klucel (hydroxypropylcellulose) (HPC)
[6] = dose: 200.0 mg/kg/injection, schedule: Q01DX005 (ip), vehicle: Klucel (hydroxypropylcellulose) (HPC)
[7] = dose: 100.0 mg/kg/injection, schedule: Q01DX009 (ip), vehicle: saline with Tween-80
[8] = dose: 200.0 mg/kg/injection, schedule: Q01DX009 (ip), vehicle: saline with Tween-80
[9] = dose: 50.0 mg/kg/injection, schedule: Q04DX003 (ip), vehicle: saline with Tween-80
[10] = dose: 60.0 mg/kg/injection, schedule: Q01DX005 (ip), vehicle: saline with Tween-80
[11] = dose: 120.0 mg/kg/injection, schedule: Q01DX005 (ip), vehicle: saline with Tween-80
[12] = dose: 240.0 mg/kg/injection, schedule: Q01DX005 (ip), vehicle: saline with Tween-80

Measured: T/C

COc1ccc(OCCC(=O)O)cc1
inactive: dose: 1.56 mg/kg/injection, schedule: Q01DX009 (ip), vehicle: saline with Tween-80 109 % of control | dose: 3.12 mg/kg/injection, schedule: Q01DX009 (ip), vehicle: saline with Tween-80 112 % of control | [1] 112 % of control and 86 % of control | [2] 105 % of control | [3] 102 % of control

CCNC(=O)OCc1c(C)nc2n1CCS2
inactive: [4] 115 % of control | [5] 112 % of control

CC(=O)OCc1c(-c2ccccc2)sc2ccccc2c1=O
inactive: [4] 96 % of control | [5] 102 % of control | [6] 97 % of control

O=C1Cc2cccc3cccc1c23
inactive: [2] 90 % of control | [3] 104 % of control | [7] 96 % of control | [8] 111 % of control

CC1(C)COC(CC2CCCCC2)=N1
inactive: [3] 104 % of control | [9] 100 % of control | [7] 100 % of control | dose: 100.0 mg/kg/injection, schedule: Q04DX003 (ip), vehicle: saline with Tween-80 104 % of control | dose: 200.0 mg/kg/injection, schedule: Q04DX003 (ip), vehicle: saline with Tween-80 90 % of control

CS/C(=C1/C(=O)N(c2ccccc2)N=C1C)N1CC1
inactive: dose: 6.25 mg/kg/injection, schedule: Q04DX003 (ip), vehicle: Klucel (hydroxypropylcellulose) (HPC) 99 % of control | dose: 12.5 mg/kg/injection, schedule: Q04DX003 (ip), vehicle: Klucel (hydroxypropylcellulose) (HPC) 100 % of control | dose: 25.0 mg/kg/injection, schedule: Q04DX003 (ip), vehicle: Klucel (hydroxypropylcellulose) (HPC) 102 % of control and 109 % of control | dose: 50.0 mg/kg/injection, schedule: Q04DX003 (ip), vehicle: Klucel (hydroxypropylcellulose) (HPC) 90 % of control

Clc1nn2cnnc2c2ncccc12
inactive: dose: 12.5 mg/kg/injection, schedule: Q01DX009 (ip), vehicle: Klucel (hydroxypropylcellulose) (HPC) 91 % of control | dose: 25.0 mg/kg/injection, schedule: Q01DX009 (ip), vehicle: Klucel (hydroxypropylcellulose) (HPC) 96 % of control | dose: 50.0 mg/kg/injection, schedule: Q01DX009 (ip), vehicle: Klucel (hydroxypropylcellulose) (HPC) 92 % of control and 97 % of control

Clc1[nH]nc2ccccc12
inactive: [1] 95 % of control | dose: 12.5 mg/kg/injection, schedule: Q01DX009 (ip), vehicle: saline with Tween-80 100 % of control | dose: 12.5 mg/kg/injection, schedule: Q04DX003 (ip), vehicle: saline with Tween-80 100 % of control | [2] 86 % of control | dose: 25.0 mg/kg/injection, schedule: Q04DX003 (ip), vehicle: saline with Tween-80 100 % of control | [9] 100 % of control

CSCCC(NC(=O)C(CC(C)C)NC(=O)OC(C)(C)C)C(N)=O (stereo not drawn) (Boc-Leu-Met-NH2; configuration not given here)
inactive: [4] 98 % of control | [5] 91 % of control | [6] 95 % of control

CC(C)(C)c1cc(/C=N/NC(=O)CC2CCCCC2)cc(C(C)(C)C)c1O
inactive: [10] 96 % of control | [11] 100 % of control | [12] 87 % of control

O=C(/C=C/c1ccc(OCC2CO2)cc1)c1cc2ccccc2nc1Cl (stereo not given)
inactive: dose: 100.0 mg/kg/injection, schedule: Q04DX002 (ip), vehicle: saline with Tween-80 100 % of control | dose: 200.0 mg/kg/injection, schedule: Q04DX002 (ip), vehicle: saline with Tween-80 100 % of control | dose: 400.0 mg/kg/injection, schedule: Q04DX002 (ip), vehicle: saline with Tween-80 100 % of control

O=C(O)C1NCCC1Oc1ccccc1 (stereo not given)
inactive: [4] 99 % of control | [5] 104 % of control | [6] 100 % of control

CCC1=CCC2C(=O)C3C(C(=O)C2C1)C1(c2ccccc2)OC3(c2ccccc2)c2ccccc21 (stereo not given)
inactive: [3] 95 % of control | [7] 88 % of control | [8] 87 % of control

O=C1Oc2ccccc2C(=O)C1=Ic1ccccc1
inactive: [4] 88 % of control | [5] 94 % of control | [6] 95 % of control

CC(=O)Nc1ccc(C(=O)c2ccccc2)cc1
inactive: dose: 25.0 mg/kg/injection, schedule: Q04DX003 (ip), vehicle: saline 102 % of control | dose: 50.0 mg/kg/injection, schedule: Q04DX003 (ip), vehicle: saline 103 % of control | dose: 100.0 mg/kg/injection, schedule: Q04DX003 (ip), vehicle: saline 100 % of control | dose: 200.0 mg/kg/injection, schedule: Q04DX003 (ip), vehicle: saline 103 % of control

CC(C)(C)C1(C(C)(C)C)CO1
inactive: dose: 6.25 mg/kg/injection, schedule: Q01DX009 (ip), vehicle: saline 98 % of control | dose: 12.5 mg/kg/injection, schedule: Q01DX009 (ip), vehicle: saline 96 % of control

NC1(O)C(=O)NC(=O)NC1=O
inactive: dose: 60.0 mg/kg/injection, schedule: Q01DX005 (ip), vehicle: saline 101 % of control | dose: 120.0 mg/kg/injection, schedule: Q01DX005 (ip), vehicle: saline 93 % of control | dose: 240.0 mg/kg/injection, schedule: Q01DX005 (ip), vehicle: saline 88 % of control

O=Cc1c2ccc(Cl)cc2nc2cc(Cl)ccc12
inactive: dose: 25.0 mg/kg/injection, schedule: Q01DX001 (ip), vehicle: saline with Tween-80 100 % of control | dose: 50.0 mg/kg/injection, schedule: Q01DX001 (ip), vehicle: saline with Tween-80 90 % of control | dose: 100.0 mg/kg/injection, schedule: Q01DX001 (ip), vehicle: saline with Tween-80 100 % of control

O=C(Cl)C=Cc1ccc([N+](=O)[O-])cc1 (mixture of isomers)
inactive: dose: 50.0 mg/kg/injection, schedule: Q01DX009 (ip), vehicle: saline 104 % of control | dose: 100.0 mg/kg/injection, schedule: Q01DX009 (ip), vehicle: saline 94 % of control

O=C(Cc1nc2ccccc2nc1CC(=O)c1cccnc1)c1cccnc1
inactive: [10] 102 % of control | [11] 93 % of control | [12] 93 % of control

NCCCn1[nH]c(=O)c2ncccc2c1=O
inactive: [10] 110 % of control | [11] 112 % of control | [12] 102 % of control

C=CC1CC[N-]CC1.[Cl][Cu][Cl]
inactive: dose: 7.5 mg/kg/injection, schedule: Q01DX005 (ip), vehicle: saline 98 % of control | dose: 15.0 mg/kg/injection, schedule: Q01DX005 (ip), vehicle: saline 100 % of control

C(=C\C1CC2CCCN2O1)/c1ccccc1 (stereo not given)
inactive: [2] 90 % of control | [3] 105 % of control | [7] 100 % of control | [8] 107 % of control

CCCCCCN=C(N)N/N=C(\C)c1ccc2c(c1)Cc1cc(/C(C)=N/NC(N)=NCCCCCC)ccc1-2
inactive: dose: 6.25 mg/kg/injection, schedule: Q04DX002 (ip), vehicle: saline with Tween-80 98 % of control | dose: 12.5 mg/kg/injection, schedule: Q04DX002 (ip), vehicle: saline with Tween-80 107 % of control | dose: 25.0 mg/kg/injection, schedule: Q04DX002 (ip), vehicle: saline with Tween-80 109 % of control | dose: 50.0 mg/kg/injection, schedule: Q04DX002 (ip), vehicle: saline with Tween-80 116 % of control
